In ChEMBL document CHEMBL1159152, “A novel bromopyrrole alkaloid from the sponge Agelas longissima with antiserotonergic activity” (Bioorg Med Chem Lett, 1995):

What was measured:
[1] = target: Serotonin (5-HT) receptor; test: Affinity against 5-hydroxytryptamine receptor was determined; format: protein assay, Rattus norvegicus
[2] = species: Rattus norvegicus; test: In vitro antiserotonergic activity on rat stomach fundus strip; format: functional

pA2 [1]: 6.2 | IC50 [2]: 80 µM
Structure (SMILES): O=C([O-])c1ccc[n+](CCOC(=O)c2cc(Br)c[nH]2)c1
